Laboratory results: US20160137746A1, “METHODS FOR TREATING HIGH CARDIOVASCULAR RISK PATIENTS WITH HYPERCHOLESTEROLEMIA” (Sanofi Biotechnology, priority 2014, published 2016)

What was measured:
[1] = system: high cardiovascular risk patients with hypercholesterolemia; experiment: ODYSSEY COMBO II: lipid efficacy of alirocumab vs ezetimibe, add-on to maximally tolerated statin; format: in vivo, human; details: for Calculated LDL-C percent change from baseline, LS mean (SE): ITT population, MMRM, alirocumab 75 Q2W/Up150 Q2W, ezetimibe 10
Text: Each of the COMBO studies was randomized, double-blinded, and placebo-controlled.
The primary efficacy endpoint for each study was the difference between treatment arms in the percent change in LDL-C from baseline to Week 24.
Apo, apolipoprotein; HDL-C, high-density lipoprotein cholesterol; ITT, intent-to-treat; LDL-C, low-density lipoprotein cholesterol; Lp(a), lipoprotein (a); TG, triglycerides.
COMBO II was a Phase 3, randomized, double-blind, active-controlled, parallel-group, multinational 104-week study. The study enrolled high-risk patients with uncontrolled hypercholesterolemia on stable, maximally tolerated daily statin therapy. Unlike COMBO I, with a placebo arm, COMBO II incorporated an active-treatment arm (ezetimibe) with double-dummy design (FIG. 1B) and patients were not allowed to receive any other lipid lowering therapies besides statin and their randomized treatment.
After randomization, patients entered a double-blind, double-dummy treatment period of 104 weeks.
Primary analyses of efficacy endpoints were conducted using an ITT approach (based on the ITT population defined above), including all lipid data, regardless of whether the patient was continuing therapy or not. This corresponds to ITT estimands, defined for primary and key secondary endpoints. In addition, analyses were also conducted using an on-treatment approach (based on the mITT population defined above), including lipid data collected during the efficacy treatment period. This corresponds to on-treatment estimands of key secondary endpoints.
With regards to the primary efficacy analysis (ITT approach), the percent change in calculated LDL-C from baseline to Week 24 was analyzed using a mixed-effect model with repeated measures (MMRM) approach.

[2] = system: high cardiovascular risk patients with hypercholesterolemia; details: human, in vivo, 52 weeks
Experimental: (§1) Safety assessments during both studies were as follows. Safety was assessed through adverse event (AE) reporting (including adjudicated cardiovascular events), laboratory analyses, and vital signs measurement. Since the LDL-C-lowering effects of PCSK9 inhibition on top of a statin are unknown, a number of AEs were defined as being of special interest and were monitored, including alanine aminotransferase abnormalities, allergic events, hemolytic anemia, pregnancy, overdose with study drug, neurologic events, ophthalmic events, and local injection site reactions.
(§2) Safety Analyses were as follows. AEs (including adjudicated cardiovascular events), laboratory parameters, and vital signs were reported descriptively, based on the safety population (all randomized patients who received at least 1 dose or partial dose of study treatment). The safety analysis focused on the treatment-emergent AE period defined as the time from the first double-blind dose to the last double-blind dose of the investigational product +70 days (10 weeks).
(§3) The safety population included all randomized patients who received at least one dose or part of a dose of the double-blind IMP.
(§4) Safety analyses were descriptive, performed on the safety population according to treatment actually received. For analysis of TEAE and PCSA, the safety analysis focused on the TEAE period defined as the time from the first dose of double-blind IMP administration (capsule or injection, whichever comes first) up to 70 days after the last double-blind injection.

[3] = system: high cardiovascular risk patients with hypercholesterolemia; experiment: ODYSSEY COMBO II: safety (TEAEs, adjudicated CV events, laboratory parameters, low LDL-C)
Experimental: as §1, §2, §3, §4

[4] = safety population at 52 weeks, all patients, number (%) of patients
[5] = treatment period, safety population

What does the source list for `O=C1[C@H](CC[C@H](O)c2ccc(F)cc2)[C@@H](c2ccc(O)cc2)N1c1ccc(F)cc1` [Ezetimibe, ezetimibe, reference compound]?
Achieved LDL-C, median ([1]; 24 weeks, FIG. 7): 70 mg/dL; Calculated LDL-C, LS mean (SE) percent change from baseline ([1]; ITT, Week 24): −20.7 (1.9) %; Fasting TGs, LS mean percent change from baseline ([1]; ITT, Week 24): −12.8%; Calculated LDL-C, LS mean (SE) percent change from baseline ([1]; ITT, Week 24, listed as ezetimibe): −20.7%; Calculated LDL-C percent change from baseline, LS mean (SE) ([1]; Week 4): −25.3 (1.6) %; Calculated LDL-C percent change from baseline, LS mean (SE) ([1]; Week 8): −24.3 (1.7) %; Calculated LDL-C percent change from baseline, LS mean (SE) ([1]; Week 12): −21.8 (1.8) %; Calculated LDL-C percent change from baseline, LS mean (SE) ([1]; Week 16): −23.0 (1.8) %; Fasting TGs reduced from baseline ([1]; Week 24): 13.3%; Mean achieved LDL-C ([1]; Week 24): 82.5 (2.0) mg/dL; Calculated LDL-C percent change from baseline, LS mean (SE) ([1]; Week 24): −20.7 (1.9) %; Apo-B - Percent change from baseline to Week 24, LS mean vs. baseline ([1]; Week 24, On-treatment analysis): −19.1 (1.4); Calculated LDL-C - Percent change from baseline to Week 24, LS mean vs. baseline ([1]; Week 24, On-treatment analysis): −21.8 (1.8) %; Non-HDL-C - Percent change from baseline to Week 24, LS mean vs. baseline ([1]; Week 24, On-treatment analysis): −20.2 (1.6); HDL-C percent change from baseline to week 24 ([1]; Week 24, on-treatment analysis): 0.8 (1.1); Lipoprotein(a) percent change from baseline to week 24 ([1]; Week 24, on-treatment analysis): −5.6 (1.9); Total cholesterol percent change from baseline to week 24 ([1]; Week 24, on-treatment analysis): −15.2 (1.2); Triglycerides (fasted) percent change from baseline to week 24 ([1]; Week 24, on-treatment analysis): −13.3 (2.0); Calculated LDL-C percent change from baseline, LS mean (SE) ([1]; Week 36): −19.3 (2.0) %; Calculated LDL-C percent change from baseline, LS mean (SE) ([1]; Week 52): −18.3 (2.1) %; TEAE preferred term: Influenza [2]: 7 (2.9); Adjudicated cardiovascular events ([3]; in vivo): 3.7%; SOC gastrointestinal disorders ([3]; in vivo): 13.7%; SOC infections and infestations ([3]; in vivo): 25.3%; SOC musculoskeletal and connective tissue disorders ([3]; in vivo): 17.0%; Treatment-emergent local injection site reactions ([3]; in vivo): 0.8%; Patients who experienced at least one TEAE ([3]; mean 58 weeks' follow-up): 67.2%; Serious adverse event ([3]; mean 58 weeks' follow-up): 17.8%; TEAE leading to death ([3]; mean 58 weeks' follow-up): 4 (1.7%) n (%); TEAEs leading to treatment discontinuation ([3]; mean 58 weeks' follow-up): 5.4%; Laboratory parameters: Blood glucose increased [3, 4]: 3 (1.2); Laboratory parameters: Hemoglobin decreased [3, 4]: 2 (0.8); Patients experiencing any TEAE [3, 4]: 162 (67.2); TEAE preferred term: Accidental overdose [3, 4]: 16 (6.6); TEAE preferred term: Angina pectoris [3, 4]: 11 (4.6); TEAE preferred term: Arthralgia [3, 4]: 9 (3.7); TEAE preferred term: Dizziness [3, 4]: 13 (5.4); TEAE preferred term: Headache [3, 4]: 10 (4.1); TEAE preferred term: Hypertension [3, 4]: 10 (4.1); TEAE preferred term: Myalgia [3, 4]: 12 (5.0); TEAE preferred term: Nasopharyngitis [3, 4]: 9 (3.7); TEAE preferred term: Upper respiratory tract infection [3, 4]: 14 (5.8); TEAE system organ class: Blood and lymphatic system disorders [3, 4]: 8 (3.3); TEAE system organ class: Cardiac disorders [3, 4]: 29 (12.0); TEAE system organ class: Eye disorders [3, 4]: 9 (3.7); TEAE system organ class: Gastrointestinal disorders [3, 4]: 33 (13.7); TEAE system organ class: General disorders and administration site conditions [3, 4]: 26 (10.8); TEAE system organ class: Infections and infestations [3, 4]: 61 (25.3); TEAE system organ class: Injury, poisoning, and procedural complications [3, 4]: 33 (13.7); TEAE system organ class: Investigations [3, 4]: 21 (8.7); TEAE system organ class: Metabolism and nutrition disorders [3, 4]: 18 (7.5); TEAE system organ class: Musculoskeletal and connective tissue disorders [3, 4]: 41 (17.0); TEAE system organ class: Neoplasms, benign, malignant and unspecified (including cysts and polyps) [3, 4]: 7 (2.9); TEAE system organ class: Nervous system disorders [3, 4]: 40 (16.6); TEAE system organ class: Psychiatric disorders [3, 4]: 12 (5.0); TEAE system organ class: Renal and urinary disorders [3, 4]: 13 (5.4); TEAE system organ class: Reproductive system and breast disorders [3, 4]: 2 (0.8); TEAE system organ class: Respiratory, thoracic, and mediastinal disorders [3, 4]: 22 (9.1); TEAE system organ class: Skin and subcutaneous tissue disorders [3, 4]: 15 (6.2); TEAE system organ class: Vascular disorders [3, 4]: 20 (8.3); Patients with 2 consecutive calculated LDL-C value <15 mg/dL [3, 5]: 0/230; Patients with 2 consecutive calculated LDL-C value <25 mg/dL [3, 5]: 0/230; Patients with 2 consecutive calculated LDL-C value <25 mg/dL ([3]; treatment period, safety population, listed as ezetimibe): none
